Source: patent US8901301B2, “Pyrrolo[2,3-]pyridine kinase inhibitors” (Plexxikon Inc., priority 2009, dated 2014)

Assays:
Kdr = Kdr (Homo sapiens, UniProt P35968); assay: Biochemical inhibitory activity, other protein kinases: Kdr; conditions: for Kinase having IC50 of >1 μM: listing of the kinase means IC50 >1 μM
Src = Src (Homo sapiens, UniProt P12931); assay: Biochemical inhibitory activity, other protein kinases: Src; conditions: for Kinase having IC50 of <1 μM: listing of the kinase means IC50 <1 μM; for Kinase having IC50 of >1 μM: listing of the kinase means IC50 >1 μM
Src, sequence (P12931 whole entry, species assumed): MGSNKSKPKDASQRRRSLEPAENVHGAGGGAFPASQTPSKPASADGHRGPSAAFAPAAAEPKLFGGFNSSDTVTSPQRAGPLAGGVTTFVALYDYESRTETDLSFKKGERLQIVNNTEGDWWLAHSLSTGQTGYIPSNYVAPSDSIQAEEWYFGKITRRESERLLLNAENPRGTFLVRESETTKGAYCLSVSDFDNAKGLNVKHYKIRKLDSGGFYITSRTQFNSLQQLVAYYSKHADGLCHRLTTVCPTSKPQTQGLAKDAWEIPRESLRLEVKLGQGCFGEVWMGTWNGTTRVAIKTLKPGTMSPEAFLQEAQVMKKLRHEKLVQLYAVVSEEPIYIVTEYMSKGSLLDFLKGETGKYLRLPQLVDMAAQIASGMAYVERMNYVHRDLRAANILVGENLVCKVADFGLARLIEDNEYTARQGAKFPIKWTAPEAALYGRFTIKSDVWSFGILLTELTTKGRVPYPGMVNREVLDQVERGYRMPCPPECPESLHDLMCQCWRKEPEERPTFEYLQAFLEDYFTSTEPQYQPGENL

[1] = system: Colo205 colorectal tumor cells with BRaf V600E mutation; assay: Colo205 xenograft mouse model; format: in vivo; conditions: female nu/nu mice, 10 mg/kg daily for fourteen days, vs vehicle control
Description: Female nu/nu mice are implanted with Colo-205 trocar fragments from donor mice, sub-cutaneous and high in the axilla. Tumor growth is monitored to approximately 100 mg size, and mice are distributed to treatment groups such that the mean tumor burden within a group is within 10% of the overall mean tumor burden. Mice are treated with vehicle control, positive control or compound (8 mice per group) in 5% DMSO and 95% CMC (1%), with compound dosed at 10 mg/kg daily for fourteen days. Mice are observed daily, with tumor burden and body weights measured twice a week. Animals with tumor burden above 1500-2000 mg and any animals in moribund condition are euthanized. The average tumor growth of vehicle control group mice is compared to the average tumor growth of the test compound mice. Percent tumor growth inhibition is calculated as 100×[(tumor growth control-tumor growth test compound)/tumor growth control].

Tec = biological target: T1, Tec (Homo sapiens, UniProt P42680); assay: Biochemical inhibitory activity, other protein kinases: Tec; conditions: for Kinase having IC50 of >1 μM: listing of the kinase means IC50 >1 μM; for Kinase having IC50 of <1 μM: listing of the kinase means IC50 <1 μM
T1 sequence (P42680 1-631): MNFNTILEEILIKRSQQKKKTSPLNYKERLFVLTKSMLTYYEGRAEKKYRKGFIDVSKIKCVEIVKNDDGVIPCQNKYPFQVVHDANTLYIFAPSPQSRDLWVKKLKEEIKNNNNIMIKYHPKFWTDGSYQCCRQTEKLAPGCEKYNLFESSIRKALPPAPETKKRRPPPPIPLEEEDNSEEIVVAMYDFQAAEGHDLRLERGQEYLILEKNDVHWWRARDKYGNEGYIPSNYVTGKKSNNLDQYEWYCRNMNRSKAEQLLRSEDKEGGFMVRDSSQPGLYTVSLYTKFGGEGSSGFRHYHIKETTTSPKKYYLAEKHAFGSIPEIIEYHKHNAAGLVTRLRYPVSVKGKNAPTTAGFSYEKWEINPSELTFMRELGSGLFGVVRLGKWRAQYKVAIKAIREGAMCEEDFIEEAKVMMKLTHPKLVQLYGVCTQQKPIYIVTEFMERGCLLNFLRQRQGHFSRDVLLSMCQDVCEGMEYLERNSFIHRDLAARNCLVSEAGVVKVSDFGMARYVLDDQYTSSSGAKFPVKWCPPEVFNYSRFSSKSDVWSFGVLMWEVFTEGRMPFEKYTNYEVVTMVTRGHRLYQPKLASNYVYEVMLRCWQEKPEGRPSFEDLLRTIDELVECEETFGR

CYP3A4(BFC) = biological target: T2, CYP3A4(BFC) (Homo sapiens, UniProt P08684); assay: CYP inhibition (fluorescent substrate), CYP3A4(BFC); format: in vitro ADME; conditions: read-out: Cyp IC50 (μM) 3A4(BFC)
T2 construct: purchased BD Biosciences
T2 sequence (P08684 whole entry): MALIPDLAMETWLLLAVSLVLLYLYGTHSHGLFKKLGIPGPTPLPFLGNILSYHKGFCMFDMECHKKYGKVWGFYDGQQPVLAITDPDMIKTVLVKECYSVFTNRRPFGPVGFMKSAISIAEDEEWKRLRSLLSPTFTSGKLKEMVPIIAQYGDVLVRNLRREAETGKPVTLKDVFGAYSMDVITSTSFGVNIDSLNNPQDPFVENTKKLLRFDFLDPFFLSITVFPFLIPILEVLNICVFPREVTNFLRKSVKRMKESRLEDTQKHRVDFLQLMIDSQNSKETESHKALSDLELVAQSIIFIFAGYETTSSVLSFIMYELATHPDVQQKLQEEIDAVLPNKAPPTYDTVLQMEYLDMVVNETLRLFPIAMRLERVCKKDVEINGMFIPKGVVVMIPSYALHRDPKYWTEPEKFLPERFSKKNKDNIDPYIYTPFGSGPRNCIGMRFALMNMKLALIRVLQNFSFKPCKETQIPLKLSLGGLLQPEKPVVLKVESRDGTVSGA
Description: (§1) CYP (Cytochrome P450) enzymes are the major drug metabolizing enzymes present in the liver. The inhibition of CYP enzyme activity (IC50) for each of CYP1A2, CYP2C19, CYP2C9, CYP2D6, CYP3A4(BFC) and CYP3A4(BQ) is determined for compounds, where inhibition of metabolism of a known substrate leads to a decrease in the fluorescence of the metabolized product. The fluorescence of the product is monitored as a function of compound concentration. Compounds are dissolved in dimethyl sulfoxide to a concentration of 100 mM. These are diluted 1 μL into 82 μL of acetonitrile. An 11 μL aliquot of this solution is then added to 204 μL of cofactor mix (1.3% NADPH Regeneration system Solution A, 1.04% NADPH Regeneration system Solution B from BD Biosciences, 5% acetonitrile and 0.05% dimethyl sulfoxide). These are then serially diluted 1:1 (160 μL to 160 μL co-factor mix) for a total of 10 points. A 10 μL aliquot of this final mixture is dispensed into 384 well assay plates and incubated for 10 minutes at 37° C. […] Assay plates are incubated at 37° C. (CYP1A2-15 min; CYP2C9-45 min; CYP2C19, 2D6 and 3A4-30 min) and read in a Tecan Safire 2 plate reader (CYP1A2, 2C19 and 3A4 409 ex/460 em; CYP2C9 and 2D6 409 ex/530 em). The signal versus compound concentration is used to determine the IC50. The enzymes and substrates for this assay are obtained from BD Biosciences.

CYP1A2 = biological target: T3, CYP1A2 (Homo sapiens, UniProt P05177); assay: CYP inhibition (fluorescent substrate), CYP1A2; format: in vitro ADME; conditions: substrate CEC; read-out: Cyp IC50 (μM) 1A2
T3 construct: purchased BD Biosciences
T3 sequence (P05177 1-516): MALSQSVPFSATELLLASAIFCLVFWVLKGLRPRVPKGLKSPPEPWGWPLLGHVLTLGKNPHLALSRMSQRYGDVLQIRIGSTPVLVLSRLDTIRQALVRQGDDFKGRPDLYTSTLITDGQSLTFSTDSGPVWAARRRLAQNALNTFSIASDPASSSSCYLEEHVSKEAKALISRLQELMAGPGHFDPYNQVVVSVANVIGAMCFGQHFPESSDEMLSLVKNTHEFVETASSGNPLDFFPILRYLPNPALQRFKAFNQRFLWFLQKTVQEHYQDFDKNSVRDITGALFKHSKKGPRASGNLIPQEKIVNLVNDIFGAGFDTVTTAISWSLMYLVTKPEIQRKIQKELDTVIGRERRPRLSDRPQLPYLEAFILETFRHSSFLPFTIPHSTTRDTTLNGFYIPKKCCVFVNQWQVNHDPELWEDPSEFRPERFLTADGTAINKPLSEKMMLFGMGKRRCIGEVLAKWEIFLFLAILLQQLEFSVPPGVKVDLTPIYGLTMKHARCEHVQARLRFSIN
Description: as §1

Kdr, sequence (P35968 20-1356, species assumed): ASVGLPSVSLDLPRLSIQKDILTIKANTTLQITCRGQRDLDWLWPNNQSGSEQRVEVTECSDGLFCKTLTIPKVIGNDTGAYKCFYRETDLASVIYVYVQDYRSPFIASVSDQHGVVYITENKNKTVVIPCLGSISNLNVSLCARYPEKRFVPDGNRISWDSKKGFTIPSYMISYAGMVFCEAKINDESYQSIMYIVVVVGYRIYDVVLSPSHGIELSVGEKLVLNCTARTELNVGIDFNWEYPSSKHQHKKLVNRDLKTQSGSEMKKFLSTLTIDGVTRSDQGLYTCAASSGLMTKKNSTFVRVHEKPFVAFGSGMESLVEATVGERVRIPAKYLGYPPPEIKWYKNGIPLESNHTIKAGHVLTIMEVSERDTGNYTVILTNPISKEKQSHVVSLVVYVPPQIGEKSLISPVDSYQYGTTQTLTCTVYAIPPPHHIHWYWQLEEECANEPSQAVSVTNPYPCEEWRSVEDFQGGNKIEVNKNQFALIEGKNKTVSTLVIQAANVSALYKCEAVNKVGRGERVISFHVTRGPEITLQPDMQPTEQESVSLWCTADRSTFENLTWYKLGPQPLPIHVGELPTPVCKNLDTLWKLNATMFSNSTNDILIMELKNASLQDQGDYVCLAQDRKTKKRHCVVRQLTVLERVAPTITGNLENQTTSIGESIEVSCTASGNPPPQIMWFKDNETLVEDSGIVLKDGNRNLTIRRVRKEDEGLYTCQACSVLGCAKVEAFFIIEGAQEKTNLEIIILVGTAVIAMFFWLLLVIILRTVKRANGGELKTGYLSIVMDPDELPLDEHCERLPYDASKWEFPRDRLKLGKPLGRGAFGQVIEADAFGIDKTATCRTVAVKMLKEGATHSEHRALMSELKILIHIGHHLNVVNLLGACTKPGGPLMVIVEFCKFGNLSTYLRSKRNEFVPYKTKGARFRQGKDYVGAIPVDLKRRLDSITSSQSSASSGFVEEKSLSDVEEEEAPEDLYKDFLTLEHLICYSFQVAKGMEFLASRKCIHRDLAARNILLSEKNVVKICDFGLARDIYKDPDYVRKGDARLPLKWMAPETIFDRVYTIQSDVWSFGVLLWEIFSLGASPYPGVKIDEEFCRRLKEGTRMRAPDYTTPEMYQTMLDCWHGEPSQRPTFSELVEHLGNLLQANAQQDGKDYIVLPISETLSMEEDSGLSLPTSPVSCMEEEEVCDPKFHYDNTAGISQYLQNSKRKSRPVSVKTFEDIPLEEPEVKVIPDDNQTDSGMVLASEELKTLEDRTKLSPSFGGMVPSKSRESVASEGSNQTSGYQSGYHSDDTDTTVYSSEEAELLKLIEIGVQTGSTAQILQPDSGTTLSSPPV

Compound	Kinase having IC50 of <1 μM (Kdr; listing of the kinase means IC50 <1 μM)	Kinase having IC50 of <1 μM (Src)	% Tumor growth inhibition [1] [%]	Kinase having IC50 of >1 μM (Tec)	IC50 (CYP3A4(BFC)) [µM]	IC50 (CYP1A2) [µM]	Kinase having IC50 of >1 μM (Kdr)	Kinase having IC50 of >1 μM (Src)	Kinase having IC50 of <1 μM (Tec)
N#Cc1cnc2[nH]cc(C(=O)c3c(F)ccc(NS(=O)(=O)c4cc(F)ccc4F)c3F)c2c1 [Compound P-0004, N-[3-(5-cyano-1H-pyrrolo[2,3-b]pyridine-3-carbonyl)-2,4-difluoro-phenyl]-2,5-difluoro-benzenesulfonamide]	Kdr	Src	103	Tec	5 to 10	> 10	–	–	–
CN(C)S(=O)(=O)Nc1ccc(F)c(C(=O)c2c[nH]c3ncc(C#N)cc23)c1F [Compound P-0007, N,N-dimethylamino-sulfonic acid [3-(5-cyano-1H-pyrrolo[2,3-b]pyridine-3-carbonyl)-2,4-difluoro-phenyl]-amide]	–	–	86	Tec	5 to 10	> 10	Kdr	Src	–
N#Cc1cnc2[nH]cc(C(=O)c3c(F)ccc(NS(=O)(=O)c4cccc(F)c4)c3F)c2c1 [Compound P-0005, N-[3-(5-cyano-1H-pyrrolo[2,3-b]pyridine-3-carbonyl)-2,4-difluoro-phenyl]-3-fluoro-benzenesulfonamide]	–	Src	88	Tec	> 10	> 10	Kdr	–	–
CCCS(=O)(=O)Nc1cccc(C(=O)c2c[nH]c3ncc(C#N)cc23)c1F [Compound P-0003, propane-1-sulfonic acid [3-(5-cyano-1H-pyrrolo[2,3-b]pyridine-3-carbonyl)-2-fluoro-phenyl]-amide]	–	–	91	–	> 10	> 10	Kdr	Src	–
N#Cc1cnc2[nH]cc(C(=O)c3c(F)ccc(NS(=O)(=O)N4CCCC4)c3F)c2c1 [Compound P-0006, pyrrolidine-1-sulfonic acid [3-(5-cyano-1H-pyrrolo[2,3-b]pyridine-3-carbonyl)-2,4-difluoro-phenyl]-amide]	–	–	82	–	> 10	> 10	Kdr	Src	Tec
CCCS(=O)(=O)Nc1ccc(F)c(C(=O)c2c[nH]c3ncc(C#N)cc23)c1F [Compound P-0002, propane-1-sulfonic acid [3-(5-cyano-1H-pyrrolo[2,3-b]pyridine-3-carbonyl)-2,4-difluoro-phenyl]-amide]	–	–	80	Tec	> 10	> 10	Kdr	Src	–
CCCS(=O)(=O)Nc1ccc(F)c(C(=O)c2c[nH]c3ncc(-c4cnc(OC)nc4)cc23)c1F [Compound P-0001, propane-1-sulfonic acid {2,4-difluoro-3-[5-(2-methoxy-pyrimidin-5-yl)-1H-pyrrolo[2,3-b]pyridine-3-carbonyl]-phenyl}-amide]	–	–	43	–	> 10	> 10	Kdr	Src	Tec
